Conditions: a range is the spread between reports

Row | SMILES | melting point [°C]
1 | CCCCCCCCCCCCCCCCCC(=O)CCCCCCCCCCCCCCCCC | 87 to 89
2 | CCOc1cccc(OCC)c1 | 11 to 12.4
3 | O=[N+]([O-])c1cccc(Cl)c1 | 43 to 46
4 | CC(C)N(CCC(C(N)=O)(c1ccccc1)c1ccccn1)C(C)C (configuration not stated) | 94.8
5 | Oc1c(Br)c(Br)c(Br)c(Br)c1Br | 226 to 230
6 | O=C(O)CCl | 61.5 to 63
7 | O=C(O)c1ccc(-c2ccccc2)cc1 | 225 to 228
8 | CC(=O)c1ccc2ccccc2c1 | 53 to 56
9 | CC(C)(C)CC(C)(C)C | -67 to -66.5
10 | COC(C)OC | -113
11 | O=C(O)c1ccc([N+](=O)[O-])cc1C(=O)O | 162 to 163
12 | CC(C)Cl | -118 to -117
13 | CCc1ccc2c(c1)C(=O)c1ccccc1C2=O | 109 to 110
14 | CCCCCCCCCCCCCC(C)=O | 39 to 39.5
15 | CC12CCC3C(CCC4CC(OCc5ccccc5)CCC43C)C1CCC2=O (configuration not stated) | 216 to 220
16 | O=C1C=C(Cl)C(=O)C=C1Cl | 160 to 162
17 | C=C1CCC2CC1C2(C)C (configuration not stated) | -61.5 to -61
18 | CCCCC1(CC)C(=O)NC(=O)NC1=O | 126 to 128
19 | CC=C(C)C(C)C | -124
20 | O=Cc1cccc(O)c1 | 104 to 108
21 | NNC(=O)c1ccccc1O | 148

Row | SMILES | melting point [°C]
22 | CC1(C)CC(=O)CC(=O)C1 | 148
23 | N#Cc1ccc2ccccc2c1 | 65 to 66
24 | COC(C(=O)c1ccccc1)c1ccccc1 (configuration not stated) | 47 to 49.5
25 | Cc1cccc(C(C)(C)C)c1 | -41.4 to -41
26 | O=C(O)c1ccc(C(=O)O)s1 | 358 to 359
27 | Oc1ccc2c(c1)[nH]c1ccccc12 | 272
28 | O=C(O)c1ccc2c(c1)C(=O)OC2=O | 162 to 167
29 | Brc1ccc(Br)c(Br)c1 | 42 to 44.5
30 | Cc1cc(Cl)nc(Cl)c1C#N | 110 to 113
31 | Cc1ccccc1NC(=N)Nc1ccccc1C | 177 to 179
32 | CCC1(C)CC1 | -130
33 | CCOc1ccc(C#N)cc1 | 61.5 to 62
34 | C=Cc1ccc(C(=O)O)cc1 | 142 to 144
35 | COP(=S)(OC)Oc1ccc([N+](=O)[O-])cc1 | 35.5 to 36
36 | O=C(O)c1cc(Cl)cc(Cl)c1 | 186 to 188
37 | C=C(Cl)C(=O)O | 65 to 66
38 | O=C(O)C(Br)(Br)Br | 132
39 | CC(C)(C)c1ccc(O)c(C(C)(C)C)c1 | 54.5 to 56.5
40 | c1ccsc1 | -39.4 to -38
41 | CCCCCCCCCS | -20.1 to -20
42 | N#Cc1ccc(F)cc1 | 34.8 to 36

Row | SMILES | melting point [°C]
43 | O=C(O)COc1ccc(F)cc1 | 104 to 105
44 | COc1cc(OC)c(C=O)c(OC)c1 | 120 to 121
45 | O=[N+]([O-])c1cccc(Br)c1 | 54 to 56
46 | COC(=O)c1cccnc1 | 42 to 42.5
47 | OCC1CCCNC1 (configuration not stated) | 60 to 61
48 | OC1CCCCC1O (configuration not stated) | 100 to 102
49 | COc1cccc(O)c1O | 42 to 42.8
50 | CCCN(CC1CC1)c1c([N+](=O)[O-])cc(C(F)(F)F)cc1[N+](=O)[O-] | 32 to 32.5
51 | CCN(CC)CC | -115
52 | CCCCCCCCl | -70 to -69.5
53 | CS(=O)(=O)c1ccc(C(O)C(CO)NC(=O)C(Cl)Cl)cc1 (configuration not stated) | 165
54 | CCCCOC(=O)c1ccc(O)cc1 | 68.5 to 72
55 | CC(=O)c1ccc(Br)s1 | 94.5 to 95
56 | C=CCC(C)C | -154 to -153
57 | Nc1ccc(O)c([N+](=O)[O-])c1 | 126 to 129
58 | C[C@H](O)CN | 21.5 to 25
59 | O=[N+]([O-])c1ccc(Oc2ccc(Cl)cc2Cl)cc1 | 70 to 70.5
60 | N#CCCCCCCC#N | -3.5 to -3
61 | C=CCC1(C(C)CCC)C(=O)NC(=O)NC1=O (configuration not stated) | 95 to 100
62 | O=C(O)CCC(=O)c1ccccc1 | 117 to 118
63 | NCCS | 96 to 98

Row | SMILES | melting point [°C]
64 | c1ccc(P(CCCP(c2ccccc2)c2ccccc2)c2ccccc2)cc1 | 60 to 61
65 | N#Cc1ccccc1O | 93.5 to 98
66 | CC(Cl)C(Cl)(Cl)Cl (configuration not stated) | -65 to -64
67 | CCCOCC | -128 to -127
68 | Nc1c(Br)cc([N+](=O)[O-])cc1[N+](=O)[O-] | 152 to 154
69 | Oc1ccc2ccccc2c1/N=N/c1ccccc1 | 132 to 134
70 | S=C=Nc1ccc(Cl)cc1 | 45 to 46
71 | CCCCCCCC/C=C\CCCCCCCCCCCC(N)=O | 77.5 to 79
72 | CCC(C)=NO | -30 to -29.5
73 | C[Si](C)(C)C#C[Si](C)(C)C | 22 to 26
74 | O=C(CBr)c1ccc(Br)cc1 | 109 to 111
75 | C=CCC1(C(C)C)C(=O)NC(=O)NC1=O | 141 to 143
76 | NC(=S)c1c(Cl)cccc1Cl | 151 to 152
77 | ClC(c1ccccc1)(c1ccccc1)c1ccccc1 | 112 to 114
78 | N#CSCc1ccccc1 | 42 to 43
79 | CC1CCC(C)(C)C1 (configuration not stated) | -142
80 | O=C(c1ccco1)C(O)c1ccco1 (configuration not stated) | 136 to 138
81 | O=C(O)c1ccc([N+](=O)[O-])cc1[N+](=O)[O-] | 181 to 182
82 | NC(=S)NS(=O)(=O)c1ccc(N)cc1 | 179 to 182

From a melting point compilation (Tetko et al.)
